Test results as given in article PMC11836371, “Virtual fragment screening for DNA repair inhibitors in vast chemical space” (Nature Communications, 2025).
Values joined by “and” are separate entries in the source; they are usually repeats but may differ in a detail not shown here. Equal values may be shown once. Read-outs that look alike come from different tables or passages of the source.

Experiments:
HCT116 cells = assay: Cancer cell viability assay (resazurin), HCT116; type: cell-based; conditions: two independent experiments
Method in brief: (§1)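 Cells were exposed for 72 h at 37 °C, 5% CO2 to 11-point compound dose-response curves in 10% FBS medium. Resazurin (final 10 µg/mL) was then added for 6 h and resorufin fluorescence read (ex 544/em 595 nm). Viability relative to untreated wells; EC50 from curve fitting.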

human OGG1 enzyme [1] = molecular target: T1, human OGG1 enzyme (Homo sapiens, UniProt O15527); assay: OGG1 glycosylase activity assay (enzyme inhibition, APE1-coupled fluorescence); type: biochemical
A2780 cells = assay: Cancer cell viability assay (resazurin), A2780; type: cell-based; conditions: two independent experiments
Method in brief: as §1

human OGG1 enzyme [2] = molecular target: T1, human OGG1 enzyme; assay: Differential scanning fluorimetry (DSF) thermal shift assay; type: binding; design: ∆Tm (K): unit of the concentration uncertain
Protocol: The temperature was increased from 20 °C to 85 °C with 10 readings/degree. Tm values were calculated using an excel template and fitting to the Boltzmann equation in Prism v.6.07 (GraphPad Software).

[3] = Cell viability assay (resazurin), BJhTERT non-transformed control; type: cell-based; conditions: human, BJhTERT immortalized fibroblast cells, BJhTERT, 100 μM, two independent experiments; read-out: percentage cell viability
Method in brief: (§2)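 Cells in FBS-supplemented media exposed to compound for 72 h at 37 °C, 5% CO2, then resazurin added to 10 µg/mL final. Viability expressed relative to untreated control wells; EC50 derived by curve fitting.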

BJhTERT cells = assay: as above; type: cell-based; conditions: BJhTERT, 100 μM, two independent experiments
Method in brief: as §2

A549 cells = assay: Cancer cell viability assay (resazurin), A549; type: cell-based; conditions: two independent experiments
Method in brief: as §1

[4] = Metabolic stability in human liver microsomes; type: in vitro ADME; conditions: pH 7.4, intrinsic clearance
Protocol: Human liver microsomes were purchased from BioIVT. Metabolic stability was determined in 0.5 mg/mL human liver microsomes at a compound concentration of 1 µM in 100 mM KPO4 buffer pH 7.4 in a total incubation volume of 500 µL. The reaction was initiated by the addition of 1 mM NADPH. At various incubation times, i.e., at 0, 5, 10, 20, 40, and 60 min, a sample was withdrawn from the incubation and the reaction was terminated by the addition of cold acetonitrile with warfarin as an internal standard. The amount of parent compound remaining was analyzed by liquid chromatography coupled to triple quadrupole mass spectrometry (LC-MS/MS).

[5] = Plasma protein binding in human plasma (RED); type: in vitro ADME; conditions: plasma (50% plasma, 50% isotonic buffer), pH 7.4, read-out: Protein plasma binding, fu (%)
Protocol: Pooled human plasma was provided by Uppsala Academic Hospital and was collected from two donors (non-smoking) (citric acid). In brief, 0.2 mL of the plasma (50% plasma, 50% isotonic buffer) test solution (typically 10 µM final compound concentration) was transferred to the membrane tube in the RED insert (ThermoFisher Scientific). 0.35 ml isotonic phosphate buffer pH 7.4 was added to the other side of the membrane. The 96-well base plate was then sealed with an adhesive plastic film (Scotch Pad) to prevent evaporation. The sample was incubated with rapid rotation (>>900 rpm) on a Kisker rotational incubator at 37 °C for 4 h to achieve equilibrium. Prior to LC-MS/MS analysis the plasma and buffer samples were treated with the addition of Methanol (1:3) containing Warfarin as an internal standard to precipitate proteins. The standard curve was created using the plasma standard. The plate was then sealed, and centrifuged and the supernatant was analyzed by liquid chromatography coupled to triple quadrupole mass spectrometry (LC-MS/MS).

T1 sequence (O15527 whole entry): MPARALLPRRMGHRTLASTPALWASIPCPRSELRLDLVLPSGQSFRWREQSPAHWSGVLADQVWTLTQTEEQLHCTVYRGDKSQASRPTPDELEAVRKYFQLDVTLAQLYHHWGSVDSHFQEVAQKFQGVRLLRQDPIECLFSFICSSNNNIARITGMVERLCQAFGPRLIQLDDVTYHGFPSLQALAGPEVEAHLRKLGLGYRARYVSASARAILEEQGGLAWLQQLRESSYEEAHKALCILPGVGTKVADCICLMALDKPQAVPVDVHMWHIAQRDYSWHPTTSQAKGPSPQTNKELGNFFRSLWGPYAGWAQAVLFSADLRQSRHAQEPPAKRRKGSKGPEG

Cc1nc(-c2ccc(CC(=O)Nc3noc4c3CCCC4)cc2)c(C)[nH]1 [compound 17]
percentage cell viability (HCT116 cells; HCT116, 100 μM, 100 µM): 23.58%
viability at 100 µM (HCT116 cells; Homo sapiens, HCT-116, HCT116, 100 μM, read-out: percentage cell viability): 11.8%
OGG1 inhibition, dose-response (Figure2C) (human OGG1 enzyme [1]; Concentration (M) 1.93e-7): 17.95 and 20.93 and 16.93 and 26.66
OGG1 inhibition, dose-response (Figure2C) (human OGG1 enzyme [1]; Concentration (M) 3.87e-7): 29.14 and 34.59 and 30.82 and 38.2
OGG1 inhibition, dose-response (Figure2C) (human OGG1 enzyme [1]; Concentration (M) 7.73e-7): 44.06 and 48.74 and 48.24 and 52.23
OGG1 inhibition, dose-response (Figure2C) (human OGG1 enzyme [1]; Concentration (M) 1.55e-6): 58.26 and 62.87 and 66.96 and 67.73
OGG1 inhibition, dose-response (Figure2C) (human OGG1 enzyme [1]; Concentration (M) 3.09e-6): 72.68 and 77.92 and 76.19 and 83.17
OGG1 inhibition, dose-response (Figure2C) (human OGG1 enzyme [1]; Concentration (M) 6.19e-6): 85.12 and 84.21 and 85.13 and 86.27
OGG1 inhibition, dose-response (Figure2C) (human OGG1 enzyme [1]; Concentration (M) 1.24e-5): 90.55 and 92.85 and 89.92 and 91.47
OGG1 inhibition, dose-response (Figure2C) (human OGG1 enzyme [1]; Concentration (M) 2.48e-5): 92.75 and 97.64 and 93.54 and 94.76
OGG1 inhibition, dose-response (Figure2C) (human OGG1 enzyme [1]; Concentration (M) 4.95e-5): 96.49 and 97.45 and 94.85 and 97.57
OGG1 inhibition, dose-response (Figure2C) (human OGG1 enzyme [1]; Concentration (M) 9.9e-5): 96.97 and 96.91 and 94.08 and 97.24
IC50 (human OGG1 enzyme [1]; Figure 3B source data, three independent experiments, read-out: IC50 OGG1): 505 nM and 495 nM and 518 nM
increase of inhibitory potency compared to fragment 1 (human OGG1 enzyme [1]; ratio of IC50 values): > 165 fold
IC50 (human OGG1 enzyme [1]; read-out: IC50): 600 nM
percentage cell viability (A2780 cells; A2780, 100 μM, 100 µM): 6.29%
viability at 100 µM (A2780 cells; Homo sapiens, A2780, A2780, 100 μM, read-out: percentage cell viability): 5.42%
∆Tm (K) (human OGG1 enzyme [2]; 99 μM): 8.1 ± 0.1 K
∆Tm (K) (human OGG1 enzyme [2]; 99 μM, listed as Compound 17): 8.1 K
∆Tm (K) (human OGG1 enzyme [2]; 99 (unit uncertain) as printed in sheet footnote): 8.1 ± 0.1 K
ΔTm (human OGG1 enzyme [2]; concentration not given): 8.1 K
viability at 72 h, 100 µM [3]: 28%
percentage cell viability (BJhTERT cells): 38.43%
percentage cell viability (A549 cells; A549, 100 μM, 100 µM): 56.76%
viability at 100 µM (A549 cells; Homo sapiens, A549, A549, 100 μM, read-out: percentage cell viability): 52.6%
microsomal CLint at 1 µM [4]: 23.9 µL/min/mg
fraction unbound at 4 h, 10 µM [5]: 0.014
